Article PMC10581193 (Microbiology Spectrum, 2023)
Values after ≈ are worked out from the molar mass of the structure shown.

How the values were obtained:
A549 = assay: Cell viability assay (MTT), A549; type: cell-based; conditions: Homo sapiens, 48 h
Description: (§1) Cell viabilities were measured by 3-(4,5-dimethylthiazol-2-yl)−2,5-diphenyltetrazolium bromide (MTT) assay. Briefly, 20 µL of 5 mg/mL MTT solution was added to the culture medium and incubated at 37°C for 3 h. Then 50 µL of 20% (wt/vol) SDS was directly added to each well and incubated at 37°C overnight. The plates were shaken for 15 s and the […] reading were obtained at 570 nm wavelength. The IC50 values were calculated using the GraphPad Prism 8 software.

Y17 (MDR) = assay: microbe, parasite or virus in culture; type: cell-based, M. tuberculosis; conditions: for MIC: Mycobacterium tuberculosis
[1] = test system: Klebsiella pneumoniae ATCC700603; assay: MIC against other strains, agar double dilution; conditions: ATCC700603, 24 h
S. aureus ATCC33591 = assay: MIC against other strains, agar double dilution; conditions: Staphylococcus aureus, ATCC33591, 24 h
human PDE6C = molecular target: T1, human PDE6C (Homo sapiens, UniProt P51160); assay: IMAP fluorescence polarization assay against PDE6C; type: biochemical
T1 construct: purchased BPS 60060
Description: Prepare assay buffer and stop buffer were prepared. […] Fluorescein Amidite - cyclic Guanosine Monophosphate (FAM-cGMP) was added in the 1× assay buffer for PDE6C, which was the 2× substrate solution. Two times enzyme solution was transferred to the assay plate: (i) assay plate already contained corresponding volume of compound in 100% DMSO; (ii) add 2× enzyme solution to each well of the 384-well assay plate; and (iii) incubate at room temperature for 15 min. Two times substrate solution was transferred to the assay plate. PDE reaction and termination: (i) incubate at 25°C for 40 min; (ii) add stop buffer to stop reaction, and incubate at RT for 60 min. Data were collected on Envision (Perkin Elmer). Data were fitted in Excel to obtain inhibition values using equation (1). Equation (1): Inh % = (Max − Signal)/(Max − Min) × 100. Fit the data in XL-Fit to obtain IC50 values using equation (2). Equation (2): Y = Bottom + (Top − Bottom)/[1 + (IC50/X) × HillSlope]. Y is the % inhibition and X is the compound concentration.

in vitro = in vitro ADME; conditions: rat, plasma, pH 7.4
Description: 0.1 M sodium phosphate and 0.15 M NaCl buffer (pH = 7.4 ± 0.1) were preheated. The frozen plasma was thawed at 37°C. Plasma was centrifuged at 12,000 rpm for 5 min to remove clots. Pipette and collect the supernatant as the plasma to be used in the experiment. Dialysis membrane strips were soaked in distilled water for an hour. Add 20% by volume ethanol and soak for a further 20 min. The membrane strips were then rinsed in distilled water three times before use. Five microliters of 10 mM stock solution were added into 95 µL of acetonitrile (ACN) for reference and test compounds, which was 0.5 mM solution A. Eight microliters of 10 mM stock solution were added into 192 µL of ACN for reference and test compounds, which was 0.02 mM solution B. A 96-well plate with 380 µL aliquots of plasma was preloaded in the wells designated for plasma, respectively. Twenty microliters of solution B (0.02 mM) were spiked into the pre-loaded plasma in the 96-well plate. The final concentration is 1 µM, containing 0.01% DMSO. Aliquots of 100 µL of blank dialysis buffer were applied to the receiver side of dialysis chambers. Then, aliquots of 100 µL of the plasma spiked with test and reference compounds were applied to the donor side of the dialysis chambers (always add the blank buffer to the receiver first, clearly mark the buffer and plasma chamber holes to avoid cross-contamination). […]

[2] = test system: Streptococcus pneumoniae ATCC49619; assay: MIC against other strains, agar double dilution; conditions: ATCC49619, 24 h
physchem = type: physicochemical; conditions: 37 °C, water, thermodynamic from solid
Description: Aqueous solubility of selected compounds was determined by High Performance Liquid Chromatography (HPLC) analysis. […] The absorption intensity of different concentrations of solutions was obtained by HPLC. The linear regression equation between absorption intensity and concentration was obtained by statistical method (R ^2 >0.99). A supersaturated aqueous solution of the target compound was prepared and shaken in 37°C water bath for 24 h. The supersaturated solution was centrifuged and filtered. The absorption intensity of the supersaturated solution was obtained by HPLC. The concentration of saturated aqueous solution was obtained by linear regression equation, which was the aqueous solubility of target compound.

E. faecium ATCC19434 = assay: MIC against other strains, agar double dilution; conditions: Enterococcus faecium, ATCC19434, 24 h
M. tuberculosis H37Ra = assay: microbe, parasite or virus in culture; type: cell-based, Mycobacterium tuberculosis; conditions: for MIC: Mycobacterium tuberculosis, H37RA, read-out: MIC against H37Ra
H37Rv = assay: MIC susceptibility testing against H37Rv; type: cell-based, Mycobacterium tuberculosis; conditions: for Fold increase: B18 versus TBA-7371; for MIC: Mycobacterium tuberculosis
[3] = test system: Escherichia coli ATCC25922; assay: MIC against other strains, agar double dilution; conditions: ATCC25922, 24 h
VERO = assay: Cell viability assay (MTT), VERO; type: cell-based; conditions: Chlorocebus sabaeus, 48 h
Description: as §1

[4] = test system: Staphylococcus aureus ATCC29213; assay: MIC against other strains, agar double dilution; conditions: ATCC29213, 24 h
E. coli ATCC35218 = assay: MIC against other strains, agar double dilution; conditions: Escherichia coli, ATCC35218, 24 h
[5] = test system: Enterococcus faecalis ATCC29212; assay: MIC against other strains, agar double dilution; conditions: ATCC29212, 24 h
Y48 (MDR) = assay: microbe, parasite or virus in culture; type: cell-based, M. tuberculosis; conditions: for MIC: Mycobacterium tuberculosis
S. epidermidis ATCC12228 = assay: MIC against other strains, agar double dilution; conditions: Staphylococcus epidermidis, ATCC12228, 24 h
[6] = test system: Pseudomonas aeruginosa ATCC27853; assay: MIC against other strains, agar double dilution; conditions: ATCC27853, 24 h
Y198 (XDR) = assay: microbe, parasite or virus in culture; type: cell-based, M. tuberculosis; conditions: for MIC: Mycobacterium tuberculosis

T1 sequence (P51160 whole entry): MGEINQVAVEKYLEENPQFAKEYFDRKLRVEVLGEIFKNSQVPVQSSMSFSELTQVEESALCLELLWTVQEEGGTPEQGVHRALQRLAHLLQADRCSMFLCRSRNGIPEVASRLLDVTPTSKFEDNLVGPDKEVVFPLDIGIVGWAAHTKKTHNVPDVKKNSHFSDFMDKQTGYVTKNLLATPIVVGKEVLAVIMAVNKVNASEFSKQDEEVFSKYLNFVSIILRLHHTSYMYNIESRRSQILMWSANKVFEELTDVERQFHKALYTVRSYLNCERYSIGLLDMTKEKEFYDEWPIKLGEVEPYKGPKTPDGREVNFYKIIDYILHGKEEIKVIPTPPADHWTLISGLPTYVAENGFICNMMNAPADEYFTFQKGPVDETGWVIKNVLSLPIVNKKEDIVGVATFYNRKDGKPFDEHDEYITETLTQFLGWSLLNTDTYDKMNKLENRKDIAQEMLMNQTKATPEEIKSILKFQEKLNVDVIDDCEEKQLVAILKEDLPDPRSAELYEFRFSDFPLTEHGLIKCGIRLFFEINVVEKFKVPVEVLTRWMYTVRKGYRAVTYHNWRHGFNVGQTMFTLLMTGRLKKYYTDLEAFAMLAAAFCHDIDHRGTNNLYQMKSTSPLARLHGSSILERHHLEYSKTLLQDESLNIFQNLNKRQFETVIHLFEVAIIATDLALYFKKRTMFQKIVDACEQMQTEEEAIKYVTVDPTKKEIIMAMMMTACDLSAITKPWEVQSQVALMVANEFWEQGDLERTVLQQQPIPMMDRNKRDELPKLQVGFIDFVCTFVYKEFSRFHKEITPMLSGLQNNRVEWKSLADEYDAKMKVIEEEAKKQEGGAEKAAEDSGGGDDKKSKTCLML

Compound `Cc1nc(C)c(CN2CCOc3c(C(=O)NCC(F)(F)F)cc(C4CC4)cc32)nc1C` [B18, 6-cyclopropyl-N-(2,2,2-trifluoroethyl)-4-((3,5,6-trimethylpyrazin-2-yl)methyl)-3,4-dihydro-2H-benzo[b][1,4]oxazine-8-carboxamide] has an IC50 (A549) of over 40 µM, an MIC (Y17 (MDR)) of 0.6 µg/mL (≈ 1.38 µM) and a Fold increase (Y17 (MDR); […], B18 versus TBA-7371) of 1. For the same compound, the MIC [1] was 64 µg/mL (≈ 147 µM), the MIC (S. aureus ATCC33591) was over 64 µg/mL and the IC50 (human PDE6C) was 81 µM. For the same compound, the fraction unbound at 5 h, 1 µM (in vitro) was 0.042, the MIC [2] was over 64 µg/mL and the solubility at 24 h (physchem) was 21 µg/mL (≈ 48.3 µM). The MIC (E. faecium ATCC19434) was over 64 µg/mL, the MBC/MIC (M. tuberculosis H37Ra) was under 4 and the “MIC against H37Ra” value (M. tuberculosis H37Ra) was 0.18. For the same compound, the MIC (M. tuberculosis H37Ra) was 0.18 µg/mL (≈ 0.414 µM), the Fold increase (H37Rv; 3 days) was 4 and the Fold increase (H37Rv; 7 days) was 1. For the same compound, the MIC (H37Rv; 72 h, 3 days) was 0.625 µg/mL (≈ 1.44 µM), the MIC (H37Rv; 168 h, 7 days) was 0.625 µg/mL (≈ 1.44 µM) and the MIC [3] was 64 µg/mL (≈ 147 µM). For the same compound, the IC50 (VERO) was over 40 µM, the MIC [4] was over 64 µg/mL and the MIC (E. coli ATCC35218) was over 64 µg/mL. It also gave an MIC [5] of over 64 µg/mL, an MIC (Y48 (MDR)) of 0.6 µg/mL (≈ 1.38 µM) and a Fold increase (Y48 (MDR); […], B18 versus TBA-7371) of 1. It also gave an MIC (S. epidermidis ATCC12228) of over 64 µg/mL, an MIC [6] of 64 µg/mL (≈ 147 µM) and an MIC (Y198 (XDR)) of 5 µg/mL (≈ 11.5 µM). It also gave a Fold increase (Y198 (XDR); […], B18 versus TBA-7371) of 0.25.

In the case of `Cc1nc(C)c(CN2CCOc3c(C(=O)NCC(F)(F)CO)cc(C4CC4)cc32)nc1C` [B30, 6-cyclopropyl-N-(2,2-difluoro-3-hydroxypropyl)-4-((3,5,6-trimethylpyrazin-2-yl)methyl)-3,4-dihydro-2H-benzo[b][1,4]oxazine-8-carboxamide], the MIC (M. tuberculosis H37Ra) is reported as over 25 µg/mL.

Work on `Cc1nc(C)c(CN2CCOc3c(C(=O)NCCCC(F)(F)F)cc(C4CC4)cc32)nc1C` [B31, 6-cyclopropyl-N-(4,4,4-trifluorobutyl)-4-((3,5,6-trimethylpyrazin-2-yl)methyl)-3,4-dihydro-2H-benzo[b][1,4]oxazine-8-carboxamide] yielded an MIC (M. tuberculosis H37Ra) of over 25 µg/mL.

Compound `Cc1nc(C)c(CN2CCOc3c(C(=O)NC4CCC(F)(F)CC4)cc(C4CC4)cc32)nc1C` [B32, 6-cyclopropyl-N-(4,4-difluorocyclohexyl)-4-((3,5,6-trimethylpyrazin-2-yl)methyl)-3,4-dihydro-2H-benzo[b][1,4]oxazine-8-carboxamide] has an MIC (M. tuberculosis H37Ra) of over 25 µg/mL.

For `Cc1nc(C)c(CN2CCOc3c(C(=O)NCC(F)(F)F)cc(-c4ccccc4)cc32)nc1C` [B33], the MIC (M. tuberculosis H37Ra) was over 25 µg/mL.

With `Cc1nc(C)c(CN2CCOc3c(C(=O)N(C)CC(F)(F)F)cc(C4CC4)cc32)nc1C` [B34, 6-cyclopropyl-N-methyl-n-(2,2,2-trifluoroethyl)-4-((3,5,6-trimethylpyrazin-2-yl)methyl)-3,4-dihydro-2H-benzo[b][1,4]oxazine-8-carboxamide] the MIC (M. tuberculosis H37Ra) was over 25 µg/mL.

With `COc1ncnc(Cn2cc(C(=O)NCCO)c3ncc(C)cc32)c1C` [TBA-7371, reference compound] the IC50 (A549) was over 40 µM, the MIC (Y17 (MDR)) was 0.6 µg/mL (≈ 1.69 µM) and the MIC [1] was over 64 µg/mL. The MIC (S. aureus ATCC33591) was over 64 µg/mL, the MIC [2] was over 64 µg/mL and the MIC (E. faecium ATCC19434) was over 64 µg/mL. It also gave an MIC (M. tuberculosis H37Ra) of 0.18 µg/mL (≈ 0.506 µM), an MIC (H37Rv; 72 h, 3 days) of 2.5 µg/mL (≈ 7.03 µM) and an MIC (H37Rv; 168 h, 7 days) of 0.625 µg/mL (≈ 1.76 µM). It also gave an MIC [3] of over 64 µg/mL, an IC50 (VERO) of over 40 µM and an MIC [4] of over 64 µg/mL. For the same compound, the MIC (E. coli ATCC35218) was over 64 µg/mL, the MIC [5] was over 64 µg/mL and the MIC (Y48 (MDR)) was 0.6 µg/mL (≈ 1.69 µM). For the same compound, the MIC (S. epidermidis ATCC12228) was over 64 µg/mL, the MIC [6] was over 64 µg/mL and the MIC (Y198 (XDR)) was 1.25 µg/mL (≈ 3.52 µM).
